Measurements taken from patent US20160258951A1, “METHODS OF MONITORING IMMUNE RESPONSES” (THE HENRY M. JACKSON FOUNDATION FOR THE ADVANCEMENT OF …, priority 2013, published 2016).
Several values for one entry are separate records, joined by “and”; a condition that tells them apart may be missing. Equal values may be shown once.

Columns and labels:
[1] = test system: patients with HER2/neu+ breast cancer; settings: clinical vaccines in HER2/neu+ breast cancer; cited from earlier work
CD8 T lymphocytes = experiment: HLA-A2:Ig dimer staining with control peptide-loaded dimers; format: cell-based, human; settings: almost 2000 peripheral blood samples from about 200-300 patients

IISAVVGIL [GP2]
safety and stimulation of antigen-specific immunity [1]: safe and effective in stimulating antigen-specific immunity

NH2-RIAWARTEL-COOH (H-RIAWARTEL-OH) [E37]
background binding value of negative control dimers (CD8 T lymphocytes): 03% and 0.25-0.34%
